# Like-named read-outs stand apart in the source and are kept apart here.
# Assays:
# [1] = tested on: MC3T3 osteoblasts; test: MTT cell viability, 72 h, dark or 458 nm irradiation; assay type: cell-based, murine
# Procedure: (§1) For all biology experiments, the compounds were solubilized in DMSO to reach a final fixed concentration equal to 0.1% v/v to avoid cytotoxicity caused by DMSO [89]. The results are normalized to controls (0.1% v/v DMSO). Depending on the cell type, approximatively 1000 to 10,000 cells/cm^2 were seeded in 48-well plates for MTT, ATP and GSH assays and 60 mm Petri dishes for Western blots. Cells were allowed to attach overnight and then incubated for 4 h with the different complexes (in the dark), then irradiated for 10 min, followed by an incubation in the dark up to 72 h.
# (§2) Irradiation was conducted using an in-house device: a series of blue light LEDs selected according to the absorption spectra of the compounds at a 458 nm wavelength with an emitted power of 9.6 watts. The absorbed energy, or irradiance, was measured at 458 nm with a Thorlabs Optical Power Meter PM100A at 5 and 10 cm distance between the cell layer and the light source and expressed as mW/cm^2.
# (§3) A tetrazolium-based MTT reagent (3-(4,5-dimethylthiazol-2-yl)-2,5-diphenyltetrazolium bromide) was used to determine cell viability, as previously described. After 72 h of treatment at 37 °C and 5% CO2, cells were incubated with 25 μL MTT solution (5 mg/mL; Sigma-Aldrich) for 4 h. After solubilization with 500 μL of lysis buffer (DMSO), formazan was quantified by spectrophotometry with a microplate reader at 570 nm absorbance (ClarioSTAR, BMG LabTech, Champigny-sur-Marne, France). GI50 values corresponding to the concentration that caused 50% inhibition of cell proliferation were calculated from dose–response curves obtained by nonlinear regression analysis. All results were calculated from data obtained in at least three independent experiments.
# [2] = tested on: NIH-3T3 fibroblasts; test: as above; assay type: cell-based, murine; settings: for GI50: 72 h, MTT; for PI NIH-3T3: GI50 non-irradiated / GI50 irradiated
# Procedure: as §1, §2, §3
# [3] = tested on: A549 lung cancer cells; test: as above; assay type: cell-based, human; settings: for GI50: 72 h, MTT; for PI A549: GI50 non-irradiated / GI50 irradiated; for SI vs MC3T3, A549 Blue / SI vs NIH, A549 Blue: blue light; for SI vs MC3T3, A549 Blue / SI vs MC3T3, A549 Dark: GI50 MC3T3 / GI50 A549; for SI vs NIH, A549 Blue / SI vs NIH, A549 Dark: GI50 NIH-3T3 / GI50 A549
# Procedure: as §1, §2, §3
# [4] = tested on: HeLa cervix cancer cells; test: as above; assay type: cell-based, human; settings: for GI50: 72 h, MTT; for PI HeLa: GI50 non-irradiated / GI50 irradiated; for SI vs MC3T3, HeLa Blue / SI vs NIH, HeLa Blue: blue light; for SI vs MC3T3, HeLa Blue / SI vs MC3T3, HeLa Dark: GI50 MC3T3 / GI50 HeLa; for SI vs NIH, HeLa Blue / SI vs NIH, HeLa Dark: GI50 NIH-3T3 / GI50 HeLa
# Procedure: as §1, §2, §3
# [5] = tested on: MCF7/FasR breast cancer cells; test: as above; assay type: cell-based, human; settings: for GI50: 72 h, MTT; for PI MCF7: GI50 non-irradiated / GI50 irradiated; for SI vs MC3T3, MCF7 Blue / SI vs NIH, MCF7 Blue: blue light; for SI vs MC3T3, MCF7 Blue / SI vs MC3T3, MCF7 Dark: GI50 MC3T3 / GI50 MCF7; for SI vs NIH, MCF7 Blue / SI vs NIH, MCF7 Dark: GI50 NIH-3T3 / GI50 MCF7
# Procedure: as §1, §2, §3
# [6] = tested on: PC-3 prostate cancer cells; test: as above; assay type: cell-based, human; settings: for GI50: 72 h, MTT; for PI PC-3: GI50 non-irradiated / GI50 irradiated; for SI vs MC3T3, PC-3 Blue / SI vs NIH, PC-3 Blue: blue light; for SI vs MC3T3, PC-3 Blue / SI vs MC3T3, PC-3 Dark: GI50 MC3T3 / GI50 PC-3; for SI vs NIH, PC-3 Blue / SI vs NIH, PC-3 Dark: GI50 NIH-3T3 / GI50 PC-3
# Procedure: as §1, §2, §3
# [7] = tested on: T24 bladder cancer cells; test: as above; assay type: cell-based, human; settings: for GI50: 72 h, MTT; for PI T24: GI50 non-irradiated / GI50 irradiated; for SI vs MC3T3, T24 Blue / SI vs NIH, T24 Blue: blue light; for SI vs MC3T3, T24 Blue / SI vs MC3T3, T24 Dark: GI50 MC3T3 / GI50 T24; for SI vs NIH, T24 Blue / SI vs NIH, T24 Dark: GI50 NIH-3T3 / GI50 T24
# Procedure: as §1, §2, §3
# [8] = tested on: NIH3T3; test: MTT cytotoxicity, 48 h; assay type: cell-based, murine
# Procedure: The in vitro cytotoxicity of iridium(III) complexes 4a–4g was first evaluated against cancer cell lines PC-3 (human prostate) and T24 (human bladder) and the non-cancerous NIH-3T3 cell line (murine fibroblasts) using colorimetric MTT tests after 48 h of treatment. The dimeric iridium precursor [IrCl(ppy)2]2 was used as reference and the results are summarized in Table S1 (Supplementary Materials) in the supporting information file. […] The complexes were also evaluated for their cytotoxicity towards healthy NIH-3T3 cells, giving access to the selectivity index (SI). […] No linear correlation between lipophilicity and anti-cancer activity was found for the iridium(III) complexes 4a–4g. For the following biological studies, we focused on the C1 series.
# Table S1. Cytotoxic activity of iridium(III) NHC complexes 4a−4g expressed as GI50 (μM) values towards selected cancer and normal cell lines as determined by MTT assay (48 h).a Complex PC-3 T24 NIH3T3 SI (PC-3) SI (T24) […]
# a GI50 values correspond to the concentration of complexes causing 50 % inhibition of cell growth.
# Data were obtained from three independent experiments.
# The cytotoxic effects of the NHC precursors, the imidazolium salts, which represents the potential hydrolysis and/or degradation products of the complexes, have been published before [SI-1, SI-2]. […]
# [9] = 458 nm irradiation 10 min, read-out: GI50 MC3T3 Blue
# [10] = dark, read-out: GI50 MC3T3 Dark
# [11] = 458 nm irradiation 10 min, read-out: GI50 NIH-3T3 Blue
# [12] = dark, read-out: GI50 NIH-3T3 Dark
# [13] = 458 nm irradiation 10 min, read-out: GI50 A549 Blue
# [14] = 458 nm irradiation 10 min, read-out: GI50 HeLa Blue
# [15] = 458 nm irradiation 10 min, read-out: GI50 MCF7 Blue
# [16] = 458 nm irradiation 10 min, read-out: GI50 PC-3 Blue
# [17] = 458 nm irradiation 10 min, read-out: GI50 T24 Blue
structure (smiles),measurement,setting,value
CSc1ccc(-[n+]2ccn3[c]2[Ir-3]24([c]5ccccc5-c5cccc[n+]52)([c]2ccccc2-c2cccc[n+]24)[c]2n(cc[n+]2-c2ccc(SC)cc2)C3)cc1.F[P-](F)(F)(F)(F)F [Complex 4d],GI50,[1]; [9],1800 nM
same,GI50,[1]; [10],2080 nM
same,GI50,[2]; [11],2780 nM
same,PI NIH-3T3,[2],0.8
same,GI50,[2]; [12],2330 nM
same,GI50,[3]; [13],617 nM
same,PI A549,[3],2.4
same,"SI vs MC3T3, A549 Blue",[3],2.9
same,"SI vs NIH, A549 Blue",[3],4.5
same,GI50,"[3]; dark, read-out: GI50 A549 Dark",1510 nM
same,"SI vs MC3T3, A549 Dark",[3]; dark,1.4
same,"SI vs NIH, A549 Dark",[3]; dark,1.5
same,GI50,[4]; [14],817 nM
same,PI HeLa,[4],1.9
same,"SI vs MC3T3, HeLa Blue",[4],2.2
same,"SI vs NIH, HeLa Blue",[4],3.4
same,GI50,"[4]; dark, read-out: GI50 HeLa Dark",1540 nM
same,"SI vs MC3T3, HeLa Dark",[4]; dark,1.4
same,"SI vs NIH, HeLa Dark",[4]; dark,1.5
same,GI50,[5]; [15],117 nM
same,PI MCF7,[5],3.1
same,"SI vs MC3T3, MCF7 Blue",[5],15.4
same,"SI vs NIH, MCF7 Blue",[5],23.8
same,GI50,"[5]; dark, read-out: GI50 MCF7 Dark",365 nM
same,"SI vs MC3T3, MCF7 Dark",[5]; dark,5.7
same,"SI vs NIH, MCF7 Dark",[5]; dark,6.4
same,GI50,[6]; [16],157 nM
same,PI PC-3,[6],3.2
same,"SI vs MC3T3, PC-3 Blue",[6],11.5
same,"SI vs NIH, PC-3 Blue",[6],17.7
same,GI50,"[6]; dark, read-out: GI50 PC-3 Dark",509 nM
same,"SI vs MC3T3, PC-3 Dark",[6]; dark,4.1
same,"SI vs NIH, PC-3 Dark",[6]; dark,4.6
same,GI50,[7]; [17],165 nM
same,PI T24,[7],3.0
same,"SI vs MC3T3, T24 Blue",[7],10.9
same,"SI vs NIH, T24 Blue",[7],16.8
same,GI50,"[7]; dark, read-out: GI50 T24 Dark",501 nM
same,"SI vs MC3T3, T24 Dark",[7]; dark,4.2
same,"SI vs NIH, T24 Dark",[7]; dark,4.7
same,GI50,[8],8500 nM
CC(C)[n+]1ccn2[c]1[Ir-3]13([c]4ccccc4-c4cccc[n+]41)([c]1ccccc1-c1cccc[n+]13)[c]1n(cc[n+]1C(C)C)C2.F[P-](F)(F)(F)(F)F [Complex 4a],GI50,[1]; [9],1740 nM
same,GI50,[1]; [10],2460 nM
same,GI50,[2]; [11],2790 nM
same,PI NIH-3T3,[2],1.3
same,GI50,[2]; [12],3670 nM
same,GI50,[3]; [13],107 nM
same,PI A549,[3],3.3
same,"SI vs MC3T3, A549 Blue",[3],16.3
same,"SI vs NIH, A549 Blue",[3],26.1
same,GI50,"[3]; dark, read-out: GI50 A549 Dark",355 nM
same,"SI vs MC3T3, A549 Dark",[3]; dark,6.9
same,"SI vs NIH, A549 Dark",[3]; dark,10.3
same,GI50,[4]; [14],525 nM
same,PI HeLa,[4],2.5
same,"SI vs MC3T3, HeLa Blue",[4],3.3
same,"SI vs NIH, HeLa Blue",[4],5.3
same,GI50,"[4]; dark, read-out: GI50 HeLa Dark",1290 nM
same,"SI vs MC3T3, HeLa Dark",[4]; dark,1.9
same,"SI vs NIH, HeLa Dark",[4]; dark,2.8
same,GI50,[5]; [15],50 nM
same,PI MCF7,[5],4.3
same,"SI vs MC3T3, MCF7 Blue",[5],34.8
same,"SI vs NIH, MCF7 Blue",[5],55.8
same,GI50,"[5]; dark, read-out: GI50 MCF7 Dark",213 nM
same,"SI vs MC3T3, MCF7 Dark",[5]; dark,11.5
same,"SI vs NIH, MCF7 Dark",[5]; dark,17.2
same,GI50,[6]; [16],57 nM
same,PI PC-3,[6],4.1
same,"SI vs MC3T3, PC-3 Blue",[6],30.5
same,"SI vs NIH, PC-3 Blue",[6],48.9
same,GI50,"[6]; dark, read-out: GI50 PC-3 Dark",233 nM
same,"SI vs MC3T3, PC-3 Dark",[6]; dark,10.6
same,"SI vs NIH, PC-3 Dark",[6]; dark,15.8
same,GI50,[7]; [17],82 nM
same,PI T24,[7],3.5
same,"SI vs MC3T3, T24 Blue",[7],21.2
same,"SI vs NIH, T24 Blue",[7],34.0
same,GI50,"[7]; dark, read-out: GI50 T24 Dark",288 nM
same,"SI vs MC3T3, T24 Dark",[7]; dark,8.5
same,"SI vs NIH, T24 Dark",[7]; dark,12.7
same,GI50,[8],3300 nM
